Here are results for 1 substance from US11230586B2, “Exosome production method” (TOAGOSEI CO., LTD., priority 2019, dated 2022).

Ends that are not written are not given here.

Assay [1] deals with HeLa cells. As to the kind of experiment: Measurement of amount of protein per exosome particle (BCA assay, equation (1)). Type of assay: cell-based, human. The source says: More specifically, the analyzing step preferably includes, for example, measurement of the total of amount of protein P (μg/mL) contained in the exosome fraction. A conventionally known method (such as BCA assay) can be used without any particular limitations to measure the amount of proteins. As a result, the average amount of protein per exosome, EP (μg), can be calculated based on the following equation (1). […]
(§1) More specifically, a currently commercially available human cervical cancer cell line (HeLa cells) was used as the test cultured cells.
(§2) α-MEM medium containing 10% FBS (product of Gibco) was used to culture the HeLa cells. Furthermore, FBS free of native exosomes derived from animal serum was used for the FBS.
(§3) A suitable amount of medium containing FBS at a concentration of 10% was placed in cell culture dishes having a diameter of 100 mm followed by seeding with HeLa cells so that the number of cells per dish was about 2×10^6 cells.
(§4) Next, the cells were cultured in a-MEM medium containing 10% FBS having the sample peptide suspended therein at a concentration of 5 μM under conditions of 5% CO2 at 37° C. for 48 hours.
Subsequently, the culture broth was obtained and subjected to ultracentrifugation to isolate and recover the exosomes. […]
The amount of protein was measured for each of the three exosome fractions produced as described above. […]

Assay [2] concerns HeLa cells. Briefly: Calculation of number of exosomes in exosome fractions from treated HeLa cells (NanoSight LM10). It is filed as cell-based, human.
From the text: as §1, §2, §3, §4
Subsequently, the culture broth was obtained and subjected to ultracentrifugation to isolate and recover the exosomes. More specifically, centrifugation was carried out continuously as described below under conditions of 4° C. […]
The number of exosomes was calculated for each of the three exosome fractions produced as described above. More specifically, the numbers of exosome particles in the exosome fractions were counted followed by calculating the number of exosomes using NanoSight LM10 (Malvern Panalytical Ltd.).

With “FIGNLALSDLLAGVAYTANLLLKKRTLRKNDRKKR-CONH2 (FIGNLALSDLLAGVAYTANLLLKKRTLRKNDRKKR-NH2) [Example]”, the Amount of protein in assay [1] (HeLa cells cultured 48 hours with 5 μM test substance, total protein by BCA divided by particle number) is on record as 5.9 ×10^−8 μg/exosome. In addition, the “amount of proteins in the exosomes (change, in words)” value in assay [1] (HeLa cells, 5 μM, 48 hours, in comparison with Comparative Example 1 and Comparative Example 2) is listed as “decreased considerably”. Besides, in assay [2] (HeLa cells cultured 48 hours with 5 μM test substance, exosome fraction by ultracentrifugation, suspended in PBS), the Exosome concentration was 8.31e+08 mL⁻¹. Besides, in assay [2] (HeLa cells, 5 μM, 48 hours, versus Comparative Examples), the “number of exosomes (change, in words)” value was “increase considerably”.
